Measurements from US20200030355A1, “COMBINATION THERAPY FOR TREATING CANCER” (Epizyme, Inc., priority 2014, published 2020).

Columns and labels:
Type in all cases: cell-based, human
MV4-11 (MLL-AF4) = test: Combination proliferation study with Compound A2 (ATP/CellTiter-Glo, Chou-Talalay combination index); conditions: for Combination of Compound A2 and anti-cancer agent, MV4-11: 7 Day Cotreatment; for Combination with Compound A2, MV4-11 / Combination with Compound A2, MV4-11 (MLL-AF4): 7 Day Cotreatment Model; for Combination with Compound A2, MV4-11: Table 5; for Combination with Compound A2, MV4-11 (MLL-AF4): Table 4; for Combination with Compound A2, MV4-111 MLL-AF4: Table 2, Example 3
Procedure: (§1) The acute myelogenous leukemia cell lines MV4-11 (MLL-AF4) and MOLM-13 (MLL-AF9) were obtained from American Type Culture Collection (ATCC; Rockville, Md.) and Deutsche Sammlung von Mikroorganismen and Zellkulturen (DSMZ; Braunschweig, Germany) respectively.
(§2) Studies were performed using MLL-rearranged cell lines in vitro to evaluate the anti-proliferative effect of a combination of two agents together on cell growth. Initial proliferation studies were performed to determine the IC50 of a given compound in each cell line. The cell counts were measured by ATP quantitation using the Promega Cell Titer Glo kit and luminescence values corresponded to the amount of ATP in a given well.
(§3) Compounds were evaluated for synergy in the co-treatment phase by testing the compounds in a concentration range which was bracketed around their IC50 values. The compounds were plated to a 96 well plate in a matrix format (FIG. 3) which includes increasing concentrations of each drug in the combination in a constant ratio, in addition to the effect of each compound alone in the study. Cells were seeded and grown in the log-linear phase for 3 or 7 days in the co-treatment phase. Minimum inhibition (DMSO alone) controls were used in each plate to calculate fraction affected (Fa) of a test well. DMSO concentration was kept at 0.1% v/v.
(§4) The drug combination analysis was performed utilizing the Chou-Talalay method Synergy was determined using the software package Calcusyn by Biosoft. The combination index (CI) is a quantitative term used to describe the level of synergy or antagonism in a given test system. A combination index less than one indicates synergy, and a CI greater than one indicates antagonism. Further, strong synergism is achieved when the CI value falls below 0.3.
(§5) Graphs representing values of combination index (CI) versus Fractional effect (Fa) known as Fa-CI plots were generated and synergy was evaluated. Drug synergy was statistically defined by CI values less than 1, antagonism by CI>1 and additive effect by CI equal to 1.
as §5
The HP-D300 digital dispenser (Tecan) was used to dispense compounds in a combinatorial matrix. […] Cell viability was measured via ATP content using CellTiter-Glo® (Promega).
Viability was determined using CellTiter-Glo® (Promega).
as §2, with “Proliferation studies” for “Studies”, “MOLM-13, MV4-11 and SKM-1” for “MLL-rearranged”, “cancer cell killing” for “anti-proliferative”, “IC50 values” for “IC50”, “correspond” for “corresponded”
These studies were performed to evaluate both the combinatorial effect of compounds on cell killing and the durability of the effect by washing out one of the agents.
Compounds evaluated for synergy in the co-treatment phase were tested in a range which was bracketed around the IC50's. The compounds were plated to a 96 well plate in a matrix format which includes increasing concentrations of each drug in the combination in a constant ratio, in addition to the effect of each compound alone in the study.

MOLM-13 (MLL-AF9) = test: as above; conditions: for Combination of Compound A2 and anti-cancer agent, MOLM-13: 7 Day Cotreatment
Procedure: as §1, §2, §3, §4, §5
Graphs representing values of combination index (CI) versus Fractional effect (Fa) known as Fa-CI plots were generated and synergy was evaluated. Drug synergy was statistically defined by CI values less than 1, antagonism by CI>1 and additive effect by CI equal to 1. […]
Cell viability was measured via ATP content using CellTiter-Glo® (Promega).
as §2, with “Proliferation studies” for “Studies”, “MOLM-13, MV4-11 and SKM-1” for “MLL-rearranged”, “cancer cell killing” for “anti-proliferative”, “IC50 values” for “IC50”, “correspond” for “corresponded”, “well. […]” for “well.”
Compounds evaluated for synergy in the co-treatment phase were tested in a range which was bracketed around the IC50's.

MOLM-13 cells = test: EPZ-5676 300 nM 7-day pre-treatment, then second compound 72 hours, ATPLite, IC50 shift (Example 6); conditions: 300 nM EPZ-5676 or DMSO 7-day pre-treatment, then 2nd compound 72 hours, Synergy = IC50 of 2nd compound decreased by 2-fold or more vs DMSO control
Procedure: Cells were then equilibrated in incubators for 24 hours before treatment with a second compound. Treated assay plates were incubated with a second compound for 72 hours. After this time, plates were developed for endpoint analysis using ATPLite to measure ATP content, which is used as an indicator of cell viability.
“N/D” means that IC50 of the second compound could not be determined for both conditions.

[1] = 7 Day Cotreatment Model, Table 4

## CC(C)(C)c1cc(NC(=O)Nc2ccc(-c3cn4c(n3)sc3cc(OCCN5CCOCC5)ccc34)cc2)no1 [Quizartinib]
MV4-11 (MLL-AF4)
  Combination of Compound A2 and anti-cancer agent, MV4-11: synergy
MOLM-13 (MLL-AF9); [1]
  Combination with Compound A2, MOLM-13 (MLL-AF9): Synergy (Drug synergy was statistically defined by CI values less than 1)

## CC[C@@H]1C(=O)N(C)c2cnc(Nc3ccc(C(=O)N[C@H]4CC[C@H](N5CCN(CC6CC6)CC5)CC4)cc3OC)nc2N1C(C)C [Volasertib]
MV4-11 (MLL-AF4)
  Combination with Compound A2, MV4-11: Antagonstic

## CN(Cc1cnc2nc(N)nc(N)c2n1)c1ccc(C(=O)N[C@@H](CCC(=O)O)C(=O)O)cc1 [Methotrexate]
MV4-11 (MLL-AF4)
  Combination with Compound A2, MV4-11 (MLL-AF4): Additive (additive effect by CI equal to 1)
MOLM-13 (MLL-AF9); [1]
  Combination with Compound A2, MOLM-13 (MLL-AF9): Additive (additive effect by CI equal to 1)

## O=C(Nc1ccccc1-c1cn2c(CN3CCNCC3)csc2n1)c1cnc2ccccc2n1 [SRT-1720]
MV4-11 (MLL-AF4)
  Combination with Compound A2, MV4-11 (MLL-AF4): Synergy (Drug synergy was statistically defined by CI values less than 1)
MOLM-13 cells
  MOLM-13 (summary of combination study: EPZ-5676 + 2nd compound): Synergy (considered synergistic if the IC50 value of the second compound decreased by 2-fold or more when EPZ-5676 was added as compared to the DMSO control)

## Cc1[nH]c2ccccc2c1CCNCc1ccc(/C=C/C(=O)NO)cc1 [Panobinostat]
MV4-11 (MLL-AF4)
  Combination with Compound A2, MV4-11 (MLL-AF4): Antagonistic (antagonism by CI>1)
MOLM-13 (MLL-AF9); [1]
  Combination with Compound A2, MOLM-13 (MLL-AF9): Synergy (Drug synergy was statistically defined by CI values less than 1)

## CC1(C)CCC(CN2CCN(c3ccc(C(=O)NS(=O)(=O)c4ccc(NCC5CCOCC5)c([N+](=O)[O-])c4)c(Oc4cnc5[nH]ccc5c4)c3)CC2)=C(c2ccc(Cl)cc2)C1 [ABT-199]
MV4-11 (MLL-AF4)
  Combination with Compound A2, MV4-11 (MLL-AF4): Synergy (Drug synergy was statistically defined by CI values less than 1)
MOLM-13 (MLL-AF9); [1]
  Combination with Compound A2, MOLM-13 (MLL-AF9): Additive --> Synergy

## CC(=O)c1c(C)c2cnc(Nc3ccc(N4CCNCC4)cn3)nc2n(C2CCCC2)c1=O [Palbociclib]
MV4-11 (MLL-AF4)
  Combination with Compound A2, MV4-11 (MLL-AF4): Synergy (Drug synergy was statistically defined by CI values less than 1)
MOLM-13 (MLL-AF9); [1]
  Combination with Compound A2, MOLM-13 (MLL-AF9): Synergy (Drug synergy was statistically defined by CI values less than 1)

## Nc1nc(Cl)nc2c1ncn2[C@@H]1O[C@H](CO)[C@@H](O)[C@@H]1F [Clofarabine]
MV4-11 (MLL-AF4)
  Combination with Compound A2, MV4-11 (MLL-AF4): Synergy (Drug synergy was statistically defined by CI values less than 1)
MOLM-13 (MLL-AF9); [1]
  Combination with Compound A2, MOLM-13 (MLL-AF9): Synergy (Drug synergy was statistically defined by CI values less than 1)

## CO[C@@H]1[C@H](N(C)C(=O)c2ccccc2)C[C@H]2O[C@]1(C)n1c3ccccc3c3c4c(c5c6ccccc6n2c5c31)C(=O)NC4 [Midostaurin]
MV4-11 (MLL-AF4)
  Combination with Compound A2, MV4-11 (MLL-AF4): Synergy (Drug synergy was statistically defined by CI values less than 1)

## CC[C@]1(O)C[C@H]2CN(CCc3c([nH]c4ccccc34)[C@@](C(=O)OC)(c3cc4c(cc3OC)N(C=O)[C@H]3[C@@](O)(C(=O)OC)[C@H](OC(C)=O)[C@]5(CC)C=CCN6CC[C@]43[C@@H]65)C2)C1 [Vincristine]
MV4-11 (MLL-AF4)
  Combination with Compound A2, MV4-11 (MLL-AF4): Additive (additive effect by CI equal to 1)
MOLM-13 (MLL-AF9); [1]
  Combination with Compound A2, MOLM-13 (MLL-AF9): Additive (additive effect by CI equal to 1)

## Cc1sc2c(c1C)C(c1ccc(Cl)cc1)=N[C@@H](CC(=O)OC(C)(C)C)c1nnc(C)n1-2 [JQ1]
MV4-11 (MLL-AF4)
  Combination with Compound A2, MV4-11 (MLL-AF4): Additive (additive effect by CI equal to 1)
  Combination with Compound A2, MV4-111 MLL-AF4: Additive (additive effect by CI equal to 1)
MOLM-13 (MLL-AF9); [1]
  Combination with Compound A2, MOLM-13 (MLL-AF9): Additive (additive effect by CI equal to 1)
MOLM-13 (MLL-AF9); Table 2, Example 3
  Combination with Compound A2, MOLM-13 (MLL-AF9): Additive (additive effect by CI equal to 1)

## NC(=O)NO [Hydroxyurea]
MV4-11 (MLL-AF4)
  Combination with Compound A2, MV4-11 (MLL-AF4): Synergy (Drug synergy was statistically defined by CI values less than 1)
MOLM-13 (MLL-AF9); [1]
  Combination with Compound A2, MOLM-13 (MLL-AF9): Synergy (Drug synergy was statistically defined by CI values less than 1)

## N[C@@H]1C[C@H]1c1ccccc1 (racemic) [Tranylcypromine]
MV4-11 (MLL-AF4)
  Combination of Compound A2 and anti-cancer agent, MV4-11: synergy
  Combination with Compound A2, MV4-11 (MLL-AF4): Synergy (Drug synergy was statistically defined by CI values less than 1)
MOLM-13 (MLL-AF9)
  Combination of Compound A2 and anti-cancer agent, MOLM-13: synergy
MOLM-13 (MLL-AF9); [1]
  Combination with Compound A2, MOLM-13 (MLL-AF9): Strong Synergy

## C=CC(=O)N1CCC[C@@H](n2nc(-c3ccc(Oc4ccccc4)cc3)c3c(N)ncnc32)C1 [Ibrutinib]
MV4-11 (MLL-AF4)
  Combination with Compound A2, MV4-11 (MLL-AF4): Synergy (Drug synergy was statistically defined by CI values less than 1)

## Nc1ncn([C@H]2C[C@H](O)[C@@H](CO)O2)c(=O)n1 [Decitabine]
MV4-11 (MLL-AF4)
  Combination with Compound A2, MV4-11 (MLL-AF4): Synergy (Drug synergy was statistically defined by CI values less than 1)
  Combination with Compound A2, MV4-111 MLL-AF4: Synergy (Drug synergy was statistically defined by CI values less than 1)
MOLM-13 (MLL-AF9); [1]
  Combination with Compound A2, MOLM-13 (MLL-AF9): Synergy (Drug synergy was statistically defined by CI values less than 1)
MOLM-13 (MLL-AF9); Table 2, Example 3
  Combination with Compound A2, MOLM-13 (MLL-AF9): Synergy (Drug synergy was statistically defined by CI values less than 1)

## O=C(CCCCCCC(=O)Nc1ccccc1)NO [Vorinostat]
MV4-11 (MLL-AF4)
  Combination with Compound A2, MV4-11 (MLL-AF4): Antagonistic (antagonism by CI>1)
MOLM-13 (MLL-AF9); [1]
  Combination with Compound A2, MOLM-13 (MLL-AF9): Additive/Synergy

## Cn1cncc1[C@@](N)(c1ccc(Cl)cc1)c1ccc2c(c1)c(-c1cccc(Cl)c1)cc(=O)n2C [Tipifarnib]
MV4-11 (MLL-AF4)
  Combination with Compound A2, MV4-11: Synergy (Drug synergy was statistically defined by CI values less than 1)
MOLM-13 cells
  MOLM-13 (summary of combination study: EPZ-5676 + 2nd compound): Synergy (considered synergistic if the IC50 value of the second compound decreased by 2-fold or more when EPZ-5676 was added as compared to the DMSO control)

## S=c1nc[nH]c2nc[nH]c12 [Mercaptopurine]
MV4-11 (MLL-AF4)
  Combination with Compound A2, MV4-11 (MLL-AF4): Additive (additive effect by CI equal to 1)
MOLM-13 (MLL-AF9); [1]
  Combination with Compound A2, MOLM-13 (MLL-AF9): Additive --> Synergy

## CCCc1cc2c(N3CCN(C4=NCC(C)(C)S4)CC3)ncnc2s1 [Menin-MLL inhibitor MI-2]
MV4-11 (MLL-AF4)
  Combination with Compound A2, MV4-11 (MLL-AF4): Synergy (Drug synergy was statistically defined by CI values less than 1)
MOLM-13 (MLL-AF9); [1]
  Combination with Compound A2, MOLM-13 (MLL-AF9): Synergy (Drug synergy was statistically defined by CI values less than 1)

## O=C1c2c(O)ccc(O)c2C(=O)c2c(NCCNCCO)ccc(NCCNCCO)c21 [Mitoxantrone]
MV4-11 (MLL-AF4)
  Combination of Compound A2 and anti-cancer agent, MV4-11: Synergy (A combination index less than one indicates synergy)
  Combination with Compound A2, MV4-11 (MLL-AF4): Synergy (Drug synergy was statistically defined by CI values less than 1)
MOLM-13 (MLL-AF9); [1]
  Combination with Compound A2, MOLM-13 (MLL-AF9): Synergy (Drug synergy was statistically defined by CI values less than 1)

## Nc1nc(F)nc2c1ncn2[C@@H]1O[C@H](CO)[C@@H](O)[C@@H]1O [Fludarabine]
MOLM-13 (MLL-AF9); [1]
  Combination with Compound A2, MOLM-13 (MLL-AF9): Synergy (Drug synergy was statistically defined by CI values less than 1)

## CC1(C)CCC(c2ccc(Cl)cc2)=C(CN2CCN(c3ccc(C(=O)NS(=O)(=O)c4ccc(N[C@H](CCN5CCOCC5)CSc5ccccc5)c(S(=O)(=O)C(F)(F)F)c4)cc3)CC2)C1 [Navitoclax]
MV4-11 (MLL-AF4)
  Combination of Compound A2 and anti-cancer agent, MV4-11: synergy
  Combination with Compound A2, MV4-11 (MLL-AF4): Synergy (Drug synergy was statistically defined by CI values less than 1)
MOLM-13 (MLL-AF9)
  Combination of Compound A2 and anti-cancer agent, MOLM-13: synergy
MOLM-13 (MLL-AF9); [1]
  Combination with Compound A2, MOLM-13 (MLL-AF9): Synergy (Drug synergy was statistically defined by CI values less than 1)
